From patent US20010012631A1, “Plant clonal lines and plants having elevated secondary metabolite levels” (University of Massachusetts Medical Center, a Massachusetts …, priority 1997, published 2001)
Where “and” joins values, the source holds several entries; their conditions need not be identical. Equal entries are not always repeated. Where two headings read alike, the source gives them in different places.

Tests used:
Format in all cases: cell-based
oregano clonal line 0-4 = conditions: ± SD; for RA Levels: 30 days (Example 3)
Experimental: (§1) A mucoid, non-pathogenic Pseudomonas sp. strain was isolated as a contaminant of an oregano shoot culture. This Pseudomonas sp. was termed strain F. This strain was used in selecting Pseudomonas tolerant clonal lines. Strain F was grown on yeast extract-mannitol medium (Difco, Inc., Detroit, Mich.) until the inoculum density was about 10^9 colony forming units/mL. The bacterial suspension was diluted 100-fold in sterile distilled water and about 2.5 ml was dispensed into petri plates. Individual shoots of each clonal line at about 30 days of subculture were removed by cutting at the basal end and then inoculated by dipping the cut end into the diluted bacterial suspension. Inoculated shoots were then transferred to half-strength hormone-free MS medium, which induces root formation, and incubated in a growth room at 23° C., on a 16/8 hours day/night schedule. About 40 shoots of each clone were inoculated. Control shoots of each clonal line were transferred to the same medium, but were not exposed to bacteria.
(§2) Samples of Pseudomonas-treated and untreated control shoots from each line were assayed for rosmarinic acid content and proline content. Rosmarinic acid was extracted from 50 mg of fresh shoot tissue using 2 ml of 50% (v/v) methanol and incubating for 1 hour at 55° C. One ml of the methanol extract was diluted 1:18 and the absorbance of the diluted extract was measured at 333 nm in a Genesys spectrophotometer (Spectronic Instruments, Rochester, N.Y.). The concentration of RA in the extract was calculated using an extinction coefficient of ε333=19,000 τmol^−1cm^−1. Values for the concentration of RA for each treatment/clonal line shown in the Tables and Figures of this application are the average of at least 5 separate extracts. Total rosmarinic acid content was expressed as % g/g fresh weight (FW) of tissue.
(§3) Individual shoot tissue propagules of each clonal line were transferred to half strength hormone-free MS medium supplemented with 100 μM A2C. RA content, proline content, and morphological abnormalities were determined as described in Example 1.
(§4) Shoot tissue from oregano lines 0-4 and 0-5 was also cultured in the presence of A2C for 30 days. Samples of treated and control shoots were then assayed for RA content on a fresh weight basis and for morphological abnormalities.
(§5) Individual shoot tissue propagules of each clonal line were transferred to half strength hormone-free MS medium supplement with A2C. RA content and morphological abnormalities were determined as described in Example 1.

oregano clonal line 0-5 = conditions: for RA Levels: 30 days (Example 3)
Experimental: as §1, §2, §3, §4, §5

oregano clonal line OM-1 = conditions: 30 days, ± SD
Experimental: as §2
(§6) Oregano lines 0-1, 0-4, and 0-5 of Examples 1 and 2 were tested again for cross-tolerance to A2C. Clonal lines OM-1, and OM-8 of Example 1 were also tested for cross-tolerance to A2C. Line OM-8 was previously shown to be sensitive to Pseudomonas strain F, whereas line OM-1 was tolerant of Pseudomonas strain F. Lines were maintained on MS medium containing BAP as described in Example 1.
as §5

oregano clonal line OM-8 = conditions: 30 days
Experimental: as §2, §6, §5

thyme clonal line M-3 = experiment: RA content of shoot propagules, thyme clonal line M-3; conditions: 30 to 45 days
Experimental: as §2
(§7) Three clonal thyme lines and five rosemary clonal lines were isolated and maintained in culture as described in U.S. application Ser. No. 08/771,241, filed Dec. 20, 1996 and incorporated herein by reference.
(§8) Individual shoot propagules of each clonal line were transferred to half-strength hormone-free MS media supplemented with A2C and cultured for 30 to 45 days. RA content and morphological abnormalities were determined at the end of the culture period as described in Example 1.

thyme clonal line T-16G = experiment: RA content of shoot propagules, thyme clonal line T-16G; conditions: thyme T-16G, 30 to 45 days, ± SD
Experimental: as §2, §7, §8

thyme clonal line T-12 = experiment: RA content of shoot propagules, thyme clonal line T-12; conditions: 30 to 45 days, ± SD
Experimental: as §2, §7, §8

rosemary clonal line R-1 = experiment: RA content of shoot propagules, rosemary clonal line R-1; conditions: 30 to 45 days
Experimental: as §2, §7, §8

rosemary clonal line R-7 = experiment: RA content of shoot propagules, rosemary clonal line R-7; conditions: rosemary R-7, A2C 100 μM, 30 to 45 days; ± SD
Experimental: as §2, §7, §8

With `O=C(O)C1CCN1` (stereo not shown) [A2C, azetidine-2-carboxylic acid] the RA (oregano clonal line 0-4; line 0-4, 100 μM A2C, day 30 (Example 2)) was 4.3 mg/g FW and 4.3 ± 0.7 mg/g FW, the “RA Levels” value (oregano clonal line 0-4; line 0-4, A2C 100 μM) was 6.4 ± 0.8 mg/g FW and the “RA Levels” value (oregano clonal line 0-4; line 0-4, A2C 200 μM) was 6.8 ± 0.7 mg/g FW. For the same molecule, the RA (oregano clonal line 0-5; line 0-5, 100 μM A2C, 30 days, remaining tissue portions (primarily shoot tips) (Example 2), ± SD) was 3.2 mg/g FW and 3.2 ± 0.4 mg/g FW, the “RA Levels” value (oregano clonal line 0-5; line 0-5, A2C 100 μM, ± SD) was 3.1 ± 0.5 mg/g FW and the “RA Levels” value (oregano clonal line 0-5; line 0-5, A2C 200 μM) was “inhibited”. The “RA Levels” value (oregano clonal line OM-1; line OM-1, A2C 100 μM) was 7.1 ± 0.7 mg/g FW, the “RA Levels” value (oregano clonal line OM-1; line OM-1, A2C 200 μM) was 6.4 ± 1.2 mg/g FW and the “RA Levels” value (oregano clonal line OM-8; line OM-8, A2C 100 μM, ± SD) was 2.9 ± 0.3 mg/g FW. The “RA Levels” value (oregano clonal line OM-8; line OM-8, A2C 200 μM) was “inhibited”, the “RA Levels” value (thyme clonal line M-3; thyme M-3, A2C 100 μM, ± SD) was 2.4 ± 0.5 mg/g FW and the “RA Levels” value (thyme clonal line M-3; thyme M-3, A2C 200 μM) was “inhibited”. For the same molecule, the “RA Levels” value (thyme clonal line T-16G; A2C 100 μM) was 3.1 ± 0.4 mg/g FW, the “RA Levels” value (thyme clonal line T-16G; A2C 200 μM) was 3.7 ± 0.4 mg/g FW and the “RA Levels” value (thyme clonal line T-12; thyme T-12, A2C 100 μM) was 4.1 ± 0.5 mg/g FW. The “RA Levels” value (thyme clonal line T-12; thyme T-12, A2C 200 μM) was 5.1 ± 0.5 mg/g FW, the “RA Levels” value (rosemary clonal line R-1; rosemary R-1, A2C 100 μM, ± SD) was 4.9 ± 0.5 mg/g FW and the “RA Levels” value (rosemary clonal line R-1; rosemary R-1, A2C 200 μM) was “inhibited”. The “RA Levels” value (rosemary clonal line R-7) was 6.8 ± 1.1 mg/g FW.
